Reference: US20060281769A1, “SYNERGISTIC MODULATION OF FLT3 KINASE USING THIENOPYRIMIDINE AND THIENOPYRIDINE KINASE MODULATORS” (priority 2005, published 2006)
Entries after “also recorded” stand apart in the source; their conditions may differ.

Key:
[1] = test system: relapsed and refractory AML; conditions: cited from earlier work
MV4-11 tumor xenografts = test: MV4-11 human tumor xenograft regression model in nude mice; assay type: in vivo; conditions: Tipifarnib 50 mg/kg oral single agent
Procedure: Female athymic nude mice (CD-1, nu/nu, 9-10 weeks old) were obtained from Charles River Laboratories (Wilmington, Mass.) and were maintained according to NIH standards. All mice were group housed (5 mice/cage) under clean-room conditions in sterile micro-isolator cages on a 12-hour light/dark cycle in a room maintained at 21-22° C. and 40-50% humidity. Mice were fed irradiated standard rodent diet and water ad libitum. All animals were housed in a Laboratory Animal Medicine facility that is fully accredited by the American Association for Assessment and Accreditation of Laboratory Animal Care (AAALAC). All procedures involving animals were conducted in compliance with the NIH Guide for the Care and Use of Laboratory Animals and all protocols were approved by an Internal Animal Care and Use Committee (IACUC).
On the day of study termination, a final tumor volume and final body weight were obtained on each animal. […]
The time course of the inhibitory effects of FLT3 inhibitor compounds on the growth of MV4-11 tumors is illustrated in FIG. 1. […] Percent inhibition (% I) of tumor growth was calculated versus tumor growth in the vehicle-treated Control group on the last study day.
(See FIG. 2). […] Percent Inhibition was calculated versus the mean tumor weight in the vehicle-treated control group. Statistical significance versus Control was determined by ANOVA followed by Dunnett's t-test: ** p<0.01. […]

[2] = Tolerability in tumor-bearing nude mice (body weight, overt clinical signs); conditions: either agent alone or in combination
Procedure: Female athymic nude mice weighing no less than 20-21 grams were inoculated subcutaneously in the left inguinal region of the thigh with 5×10^6 tumor cells in a delivery volume of 0.2 mL. For regression studies, the tumors were allowed to grow to a pre-determined size prior to initiation of dosing. […] Mice were dosed orally by gavage with vehicle (control group) or compound at various doses twice-daily (b.i.d.) during the week and once-daily (q.d.) on weekends. Dosing was continued for 11 consecutive days, depending on the kinetics of tumor growth and size of tumors in vehicle-treated control mice. […] During the study, tumor growth was measured three times-a-week (M, W, F) using electronic Vernier calipers. Tumor volume (mm^3) was calculated using the formula […], where L=length (mm) and W=width (shortest distance in mm) of the tumor. Body weight was measured three times-a-week and a loss of body weight >10% was used as an indication of lack of compound tolerability. […]
Female athymic nude mice weighing no less than 20-21 grams were inoculated subcutaneously in the left inguinal region of the thigh with 5×10^6 tumor cells in a delivery volume of 0.2 mL. For regression studies, the tumors were allowed to grow to a pre-determined size prior to initiation of dosing. […] During the study, tumor growth was measured three times-a-week (M, W, F) using electronic Vernier calipers. […]

MV4-11 AML cells = test: Cell proliferation assay MV4-11, single agents and FTI/FLT3 inhibitor combinations; assay type: cell-based, human; conditions: 72-hour cell proliferation assay, FLT3 dependent cells, depending on the cell type
Excerpt: (§1) All data points are an average of triplicate samples.
as §1

[3] = multicenter Phase II trial, relapsed AML
[4] = patients with relapsed and refractory AML, phase I

In the case of `Cn1cncc1C(N)(c1ccc(Cl)cc1)c1ccc2c(c1)c(-c1cccc(Cl)c1)cc(=O)n2C` (single isomer, unassigned; (+)) [Tipifarnib, (+)-6-[amino(4-chlorophenyl)(1-methyl-1H-imidazol-5-yl)methyl]-4-(3-chlorophenyl)-1-methyl-2(1H)-quinolinone], the “>50% reduction in bone marrow blasts” value [1, 3] is listed as 31 of 50, the “complete responses (bone marrow blasts <5%)” value [1, 3] is listed as 17 of 50 and the “patients achieving complete remission” value [1, 4] is listed as 2 patients. The response rate [1, 4] was ~30%, the “effect on tumor volume versus control” value (MV4-11 tumor xenografts; nine days, Day 9) was “not significantly reduced; also recorded: ineffective” and the “effect on tumor growth” value (MV4-11 tumor xenografts; sixteen days) was “ineffective”. The “overt toxicity and adverse effects on body weight” value ([2]; 9-day treatment period) was “No overt toxicity”, the “overt toxicity and adverse effects on body weight” value ([2]; 16-day treatment period) was “No overt toxicity” and the “potency for inhibition of proliferation, single agent” value (MV4-11 AML cells) was “high nanomolar to high picomolar”.
